In ChEMBL document CHEMBL3351958, “Structure-activity relationships of sugar-based peptidomimetics as modulators of amyloid β-peptide early oligomerization and fibrillization” (Eur J Med Chem, 2014):
The source made the active and inactive calls. The calls are words filed in the database; no cut-off is given here. Numbered stars: 1 amine (or outer) side, 2 acyl side, 3 side chain; on linkers, the order of the positions; unused ones are H or OH. Square brackets hold non-standard residues; d marks the D form. Peptide text beside a SMILES is read from it. * marks the point of attachment. X1 = O=C(CCOC[C@H]1O[C@@H](OCCCN[*:1])[C@H](O)[C@@H](O)[C@@H]1O)[*:2]; X2 = O=C(CCOC[C@H]1O[C@@H](OCCN[*:1])[C@H](O)[C@@H](O)[C@@H]1O)[*:2]; X4 = O=C(CCOC[C@H]1O[C@H](OCCCN[*:1])[C@H](O)[C@@H](O)[C@@H]1O)[*:2]; X3 = O=C(CCOC[C@H]1O[C@H](OCCN[*:1])[C@H](O)[C@@H](O)[C@@H]1O)[*:2]; Boc = CC(C)(C)OC(=O)*

What was measured:
[1] = target: Amyloid-beta precursor protein (Homo sapiens) (UniProt P05067); experiment: Inhibition of amyloid beta (1 to 42) (unknown origin) oligomerization assessed as reduction in intensity of experimental fluorescence plateau at 1:1 Abeta:compound ratio by thioflavin T assay based fluorescence microscopy
Amyloid-beta precursor protein (Homo sapiens), sequence (P05067 whole entry): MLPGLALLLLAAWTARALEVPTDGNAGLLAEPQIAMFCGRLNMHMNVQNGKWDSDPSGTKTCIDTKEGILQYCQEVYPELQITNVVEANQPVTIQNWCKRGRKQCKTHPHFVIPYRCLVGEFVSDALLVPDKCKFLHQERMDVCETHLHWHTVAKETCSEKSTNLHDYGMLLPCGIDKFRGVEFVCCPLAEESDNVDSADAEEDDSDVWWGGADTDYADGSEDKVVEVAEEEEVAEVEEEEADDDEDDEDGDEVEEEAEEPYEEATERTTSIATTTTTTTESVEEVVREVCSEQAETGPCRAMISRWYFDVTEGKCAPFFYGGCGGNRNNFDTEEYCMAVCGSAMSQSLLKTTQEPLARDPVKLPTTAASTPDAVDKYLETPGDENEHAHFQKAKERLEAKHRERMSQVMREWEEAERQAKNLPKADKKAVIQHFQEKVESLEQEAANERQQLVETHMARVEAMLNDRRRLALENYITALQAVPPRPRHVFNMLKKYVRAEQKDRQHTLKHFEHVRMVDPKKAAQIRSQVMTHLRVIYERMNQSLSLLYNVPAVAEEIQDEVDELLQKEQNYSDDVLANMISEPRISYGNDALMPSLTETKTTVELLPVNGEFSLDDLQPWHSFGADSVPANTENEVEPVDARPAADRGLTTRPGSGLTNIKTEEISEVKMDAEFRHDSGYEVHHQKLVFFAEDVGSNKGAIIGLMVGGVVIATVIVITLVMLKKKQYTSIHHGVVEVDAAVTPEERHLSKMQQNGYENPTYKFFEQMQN

[2] = target: Amyloid-beta precursor protein (Homo sapiens) (UniProt P05067); experiment: Inhibition of amyloid beta (1 to 42) (unknown origin) oligomerization assessed as increase in intensity of experimental fluorescence plateau at 1:10 Abeta:compound ratio by thioflavin T assay based fluorescence microscopy; parameters: scale not given: the % may be the effect or the level left
[3] = target: Amyloid-beta precursor protein (Homo sapiens) (UniProt P05067); experiment: Inhibition of amyloid beta (1 to 42) (unknown origin) oligomerization assessed as fold change in half-life of aggregation extension/reduction at 1:1 Abeta:compound ratio by thioflavin T assay based fluorescence microscopy
[4] = target: Amyloid-beta precursor protein (Homo sapiens) (UniProt P05067); experiment: Inhibition of amyloid beta (1 to 42) (unknown origin) oligomerization assessed as fold change in half-life of aggregation extension/reduction at 1:10 Abeta:compound ratio by thioflavin T assay based fluorescence microscopy
[5] = target: Amyloid-beta precursor protein (Homo sapiens) (UniProt P05067); experiment: Inhibition of amyloid beta (1 to 42) (unknown origin) oligomerization assessed as reduction in intensity of experimental fluorescence plateau at 1:10 Abeta:compound ratio by thioflavin T assay based fluorescence microscopy; parameters: scale not given: the % may be the effect or the level left
[6] = target: Amyloid-beta precursor protein (Homo sapiens) (UniProt P05067); experiment: Inhibition of amyloid beta (1 to 42) (unknown origin) oligomer formation assessed as monomer stabilization at 100 uM after 4 to 6 hrs by capillary electrophoresis
[7] = target: Amyloid-beta precursor protein (Homo sapiens) (UniProt P05067); experiment: Inhibition of amyloid beta (1 to 42) (unknown origin) oligomer formation at 1:1 Abeta:compound ratio after 4 to 6 hrs by capillary electrophoresis
[8] = target: Amyloid-beta precursor protein (Homo sapiens) (UniProt P05067); experiment: Inhibition of amyloid beta (1 to 42) (unknown origin) oligomer formation at 100 uM after 4 to 6 hrs by capillary electrophoresis
[9] = target: Amyloid-beta precursor protein (Homo sapiens) (UniProt P05067); experiment: Inhibition of amyloid beta (1 to 42) (unknown origin) fibril formation at 100 uM after 4 to 24 hrs by transmission electron microscopy
[10] = target: Amyloid-beta precursor protein (Homo sapiens) (UniProt P05067); experiment: Inhibition of amyloid beta (1 to 42) (unknown origin) oligomerization assessed as reduction in intensity of experimental fluorescence plateau at 1:5 Abeta:compound ratio by thioflavin T assay based fluorescence microscopy; parameters: scale not given: the % may be the effect or the level left
[11] = target: Amyloid-beta precursor protein (Homo sapiens) (UniProt P05067); experiment: Inhibition of amyloid beta (1 to 42) (unknown origin) oligomer formation at 1:10 Abeta:compound ratio after 4 to 6 hrs by capillary electrophoresis
[12] = target: Amyloid-beta precursor protein (Homo sapiens) (UniProt P05067); experiment: Inhibition of amyloid beta (1 to 42) (unknown origin) oligomerization assessed as fold change in half-life of aggregation extension/reduction at 1:5 Abeta:compound ratio by thioflavin T assay based fluorescence microscopy
[13] = target: Amyloid-beta precursor protein (Homo sapiens) (UniProt P05067); experiment: Inhibition of amyloid beta (1 to 42) (unknown origin) oligomer formation at 1:2 Abeta:compound ratio after 4 to 6 hrs by capillary electrophoresis

| Structure (SMILES) | inhibition [1] | Activity [2] | fold change in aggregation half-life [3] | fold change (FC) [4] | Activity [5] | inhibition [6] | inhibition [7] | inhibition [8] | inhibition [9] | Activity [10] | inhibition [11] | fold change (FC) [12] | inhibition [13] |
| --- | --- | --- | --- | --- | --- | --- | --- | --- | --- | --- | --- | --- | --- |
| COC(=O)[C@H](CC(C)C)NC(=O)[C@@H](NC(=O)CCOC[C@H]1OC(O)[C@H](OCc2ccccc2)[C@@H](OCc2ccccc2)[C@@H]1OCc1ccccc1)C(C)C (stereo partly drawn) | inactive | 14% | inactive | 0.8 |  |  |  |  |  |  |  |  |  |
| COC(=O)[C@H](CC(C)C)NC(=O)[C@@H](NC(=O)CCOC[C@H]1OC(O)[C@H](O)[C@@H](O)[C@@H]1O)C(C)C (stereo partly drawn) | inactive |  | inactive | inactive | inactive |  |  |  |  |  |  |  |  |
| COC(=O)[C@H](CC(C)C)NC(=O)[C@@H](NC(=O)CCOC[C@H]1O[C@@H](OCCCNC(=O)[C@@H](NC(=O)[C@H](C)NC(=O)OC(C)(C)C)C(C)C)[C@H](OCc2ccccc2)[C@@H](OCc2ccccc2)[C@@H]1OCc1ccccc1)C(C)C | inactive | 27% | inactive | 0.7 |  |  | inactive |  | Active |  |  |  | Active |
| COC(=O)[C@H](CC(C)C)NC(=O)[C@@H](NC(=O)CCOC[C@H]1O[C@@H](OCCNC(=O)[C@@H](NC(=O)[C@H](C)NC(=O)OC(C)(C)C)C(C)C)[C@H](OCc2ccccc2)[C@@H](OCc2ccccc2)[C@@H]1OCc1ccccc1)C(C)C | inactive | 38% | inactive | 0.8 |  |  |  |  |  |  |  |  |  |
| COC(=O)[C@H](CC(C)C)NC(=O)[C@@H](N)C(C)C (H-Val-Leu-OMe) | inactive |  | inactive | inactive | inactive |  |  |  |  |  |  |  |  |
| OC[C@H]1OC(O)[C@H](O)[C@@H](O)[C@@H]1O (stereo partly drawn) | inactive |  | inactive | inactive | inactive |  |  |  |  |  |  |  |  |
| COC(=O)[C@H](CC(C)C)NC(=O)[C@@H](NC(=O)OC(C)(C)C)C(C)C (Boc-Val-Leu-OMe) | inactive |  | inactive | inactive | inactive |  |  |  |  |  |  |  |  |
| COC(=O)[C@H](CC(C)C)NC(=O)[C@@H](NC(=O)CCOC[C@H]1O[C@H](OCCNC(=O)[C@@H](NC(=O)[C@H](C)NC(=O)OC(C)(C)C)C(C)C)[C@H](OC(C)=O)[C@@H](OC(C)=O)[C@@H]1OC(C)=O)C(C)C | inactive |  | inactive | inactive | inactive |  |  |  |  |  |  |  |  |

Continued, values first:

| inhibition [1] | Activity [2] | fold change in aggregation half-life [3] | fold change (FC) [4] | Activity [5] | inhibition [6] | inhibition [7] | inhibition [8] | inhibition [9] | Activity [10] | inhibition [11] | fold change (FC) [12] | inhibition [13] | Structure (SMILES) |
| --- | --- | --- | --- | --- | --- | --- | --- | --- | --- | --- | --- | --- | --- |
| inactive |  | inactive | 2.8 | 56% | Active | Active | Active | Active | 40% | Active | 2.1 |  | COC(=O)[C@H](CC(C)C)NC(=O)[C@@H](NC(=O)CCOC[C@H]1O[C@@H](OCCCNC(=O)[C@@H](NC(=O)[C@H](C)N)C(C)C)[C@H](O)[C@@H](O)[C@@H]1O)C(C)C (H-AV[X1]VL-OMe) |
| inactive |  | inactive | 1.8 | 29% |  |  |  |  |  |  |  |  | COC(=O)[C@H](CC(C)C)NC(=O)[C@@H](NC(=O)CCOC[C@H]1O[C@@H](OCCNC(=O)[C@@H](NC(=O)[C@H](C)NC(=O)OC(C)(C)C)C(C)C)[C@H](O)[C@@H](O)[C@@H]1O)C(C)C (Boc-AV[X2]VL-OMe) |
| inactive |  | inactive | inactive | inactive |  |  |  |  |  |  |  |  | COC(=O)[C@H](CC(C)C)NC(=O)[C@@H](NC(=O)CCOC[C@H]1O[C@H](OCCNC(=O)[C@@H](NC(=O)[C@H](C)NC(=O)OC(C)(C)C)C(C)C)[C@H](O)[C@@H](O)[C@@H]1O)C(C)C (Boc-AV[X3]VL-OMe) |
| inactive |  | inactive | inactive | inactive |  |  |  |  |  |  |  |  | COC(=O)[C@H](CC(C)C)NC(=O)[C@@H](NC(=O)CCOC[C@H]1O[C@@H](OCCCNC(=O)[C@@H](NC(=O)[C@H](C)NC(=O)OC(C)(C)C)C(C)C)[C@H](OC(C)=O)[C@@H](OC(C)=O)[C@@H]1OC(C)=O)C(C)C |
| inactive |  | inactive | inactive | inactive |  |  |  |  |  |  |  |  | COC(=O)[C@H](CC(C)C)NC(=O)[C@@H](NC(=O)CCOC[C@H]1O[C@@H](OCCNC(=O)[C@@H](NC(=O)[C@H](C)N)C(C)C)[C@H](O)[C@@H](O)[C@@H]1O)C(C)C (H-AV[X2]VL-OMe) |
| inactive |  | inactive | 1.9 | 37% |  | inactive |  | inactive |  | inactive |  |  | COC(=O)[C@H](CC(C)C)NC(=O)[C@@H](NC(=O)CCOC[C@H]1O[C@@H](OCCCNC(=O)[C@@H](NC(=O)[C@H](C)NC(=O)OC(C)(C)C)C(C)C)[C@H](O)[C@@H](O)[C@@H]1O)C(C)C (Boc-AV[X1]VL-OMe) |
| inactive |  | inactive | inactive | inactive |  |  |  |  |  |  |  |  | COC(=O)[C@H](CC(C)C)NC(=O)[C@@H](NC(=O)CCOC[C@H]1O[C@H](OCCCNC(=O)[C@@H](NC(=O)[C@H](C)NC(=O)OC(C)(C)C)C(C)C)[C@H](O)[C@@H](O)[C@@H]1O)C(C)C (Boc-AV[X4]VL-OMe) |
